Results taken from patent US10450335B2, “Antiviral oxime phosphoramide compounds” (Merck Sharp & Dohme Corp., priority 2015, dated 2019).
pIC50: −log10 of the molar value. Where two headings read alike, the source gives them in different places.

Tests used:
[1] = Prodrug stability assay in bio-relevant media (FaSSIF with Pancreatin, GI tract stability); format: in vitro ADME; conditions: HPLC peak area of prodrug at 5 h / 0 h, 0.5 mg/mL Pancreatin in FaSSIF, 37° C.
Protocol: Prodrug Stability Assay in Bio-Relevant Media
The following assay was employed to evaluate the stability of the prodrugs in simulated gastrointestinal tract conditions. Preparation of fasted state simulated intestinal fluid (FaSSIF) using Phares SIF Powder was carried out according to protocols from Phare Drug Delivery AG (Baselland, Switzerland). For sample preparation, 10 μL stock solutions (10 mM) of prodrug substance in DMSO was added to 990 μL of 0.5 mg/mL Pancreatin solution (Fisher CAS#8049-47-6) in FaSSIF. Two samples were prepared for each compound. If the sample was a clear solution, it was directly analyzed by HPLC. If the sample was not clear, the sample was […] at 37° C. and observed 5 h later. If the sample was clear, HPLC analysis was directly performed. If the sample was still not clear, the sample was diluted with 100% ACN and assayed by HPLC. All the samples were vortexed for 3 min and observed before injection. For the diluted samples, the area is multiplied by a dilution factor when the data is analyzed. The analysis was carried out with an Agilent 1100 series HPLC with autosampler. The column was a Poroshell 120 EC-C18, 4.6×50 mm, […]. The flow rate was 1.8 mL/min, and the injection volume was 5 or 10 μL. UV detection was in the range 210-400 nm. The mobile phase consisted of solvent A (water plus 10 mM tetrabutylammonium bromide) and solvent B (acetonitrile) with a gradient of: 90% solvent A at 0 min, changing to 95% solvent B over 6 min, maintaining for 1.5 min, then reverting to 90% solvent A over 1.6 min. The HPLC peak area of the prodrug at 5 h was divided by the HPLC peak area of the prodrug at 0 h, to generate the % claimed parent ratio, which is summarized in Table 2 for gastrointestinal (GI) Tract stability.

HIV-1 (H9/IIIB strain) = experiment: Viking assay: antiviral potency in a multiple round HIV-1 infection assay in MT4-GFP cells; format: cell-based; conditions: MT4-GFP cells infected with HIV-1 H9/IIIB, inhibition of reproductive ratio R0
Protocol: Assessing Antiviral Potency in a Multiple Round HIV-1 Infection Assay (Viking Assay)
The antiviral activity of the tenofovir prodrugs of the Examples herein was assessed in an assay that measures the rate of replication of HIV in cell culture, termed the Viking assay (VIral KINetics in Green cells) and performed as follows. HIV-1 replication was monitored using MT4-gag-GFP clone D3 (hereafter designated MT4-GFP), which are MT-4 cells modified to harbor a GFP reporter gene, the expression of which is dependent on the HIV-1 expressed proteins tat and rev. Productive infection of an MT4-GFP cell with HIV-1 results in GFP expression approximately 24 h post-infection. MT4-GFP cells were maintained at 37° C./5% CO2/90% relative humidity in RPMI 1640 supplemented with 10% fetal bovine serum, 100 U/ml penicillin/streptomycin, and 400 μg/ml G418 to maintain the reporter gene. For infections, MT4-GFP cells were placed in the same medium lacking G418 and infected overnight with HIV-1 (H9/IIIB strain) virus at an approximate multiplicity of infection of 0.01 in the same incubation conditions. Cells were then washed and re-suspended in either RPMI 1640 supplemented with 10% or 50% normal human serum (NHS) at 1.6×10^5 cells/mL (10% NHS or 50% NHS, respectively). Compound plates were prepared by dispensing compounds dissolved in DMSO into wells of 384 well poly-D-lysine-coated plates (0.2 μl/well) using an ECHO acoustic dispenser. Each compound was tested in a 10-point serial 3-fold dilution (typical final concentrations: 8.4 μM-0.42 nM). Controls included no inhibitor (DMSO only) and a combination of three antiviral agents (efavirenz, indinavir, an in-house integrase strand transfer inhibitor at final concentrations of 4 μM each). Cells were added (50 μL/well) to compound plates and the infected cells were maintained at 37° C./5% CO2/90% relative humidity.
Infected cells were quantified at two time points, ˜48 h and ˜72 h post-infection, by counting the number of green cells in each well using an Acumen eX3 scanner. The increase in the number of green cells over ˜24 h period gives the reproductive ratio, R0, which is typically 5-15 and has been shown experimentally to be in logarithmic phase (data not shown). Inhibition of R0 is calculated for each well, and IC50s determined by non-linear 4-parameter curve fitting.

[2] = Human immunodeficiency virus 1, IIIB, 10% normal human serum, read-out: Viking, IC50 (10% NHS)
[3] = Human immunodeficiency virus 1, IIIB, 50% normal human serum, read-out: Viking, IC50 (50% NHS)

Compound	GI Tract stability [1] [%]	pIC50 (HIV-1 (H9/IIIB strain); [2])	pIC50 (HIV-1 (H9/IIIB strain); [3])	also measured
CC(C)OC(=O)C(C)(C)NP(=O)(CO[C@H](C)Cn1cnc2c(N)ncnc21)ON=C1CCCC1 (mixture of isomers) [Example 27, isopropyl 2-(((R)-((((R)-1-(6-amino-9H-purin-9-yl)propan-2-yl)oxy)methyl)((cyclopentylideneamino)oxy)phosphoryl)amino)-2-methylpropanoate; and isopropyl 2-(((S)-((((R)-1-(6-amino-9H-purin-9-yl)propan-2-yl)oxy)methyl)((cyclopentylideneamino)oxy)phosphoryl)amino)-2-methylpropanoate]	99.3	–	–	–
CC(C)CC(CC(C)C)=NOP(=O)(CO[C@H](C)Cn1cnc2c(N)ncnc21)NC(C)(C)C(=O)OC1CCC1 (mixture of isomers) [Example 32, cyclobutyl 2-(((R)-((((R)-1-(6-amino-9H-purin-9-yl)propan-2-yl)oxy)methyl)(((2,6-dimethylheptan-4-ylidene)amino)oxy)phosphoryl)amino)-2-methylpropanoate; and cyclobutyl 2-(((S)-((((R)-1-(6-amino-9H-purin-9-yl)propan-2-yl)oxy)methyl)(((2,6-dimethylheptan-4-ylidene)amino)oxy)phosphoryl)amino)-2-methylpropanoate]	5.6	–	–	–
CC(C)=NOP(=O)(CO[C@H](C)Cn1cnc2c(N)ncnc21)N[C@@H](C)C(=O)OCc1ccccc1 (stereo partly drawn) [Example 5, benzyl (((R)-(((R)-1-(6-amino-9H-purin-9-yl)propan-2-yl)oxy)methyl)((propan-2-ylideneamino)oxy)phosphoryl)-L-alaninate; and benzyl (((S)-(((R)-1-(6-amino-9H-purin-9-yl)propan-2-yl)oxy)methyl)((propan-2-ylideneamino)oxy)phosphoryl)-L-alaninate]	–	7.67	6.94	pIC50 (HIV-1 (H9/IIIB strain); 10% normal human serum, read-out: Viking, IC50 (10% NHS)): 7.82; pIC50 (HIV-1 (H9/IIIB strain); 50% normal human serum, read-out: Viking, IC50 (50% NHS)): 7.17
CC(C)OC(=O)[C@H](C)NP(=O)(CO[C@H](C)Cn1cnc2c(N)ncnc21)ON=C(C1CCCC1)C1CCCC1 (stereo partly drawn) [Example 6, isopropyl (((((R)-1-(6-amino-9H-purin-9-yl)propan-2-yl)oxy)methyl)(((dicyclopentylmethyl-ene)amino)oxy)phosphoryl)-L-alaninate]	–	7.61	7.29	–
CCC(CC)=NOP(=O)(CO[C@H](C)Cn1cnc2c(N)ncnc21)N[C@@H](C)C(=O)OC(C)C (stereo partly drawn) [Example 7, isopropyl (((((R)-1-(6-amino-9H-purin-9-yl)propan-2-yl)oxy)methyl)((pentan-3-ylideneamino)oxy)phosphoryl)-L-alaninate]	–	7.55	7.07	–
CC(C)OC(=O)[C@H](C)NP(=O)(CO[C@H](C)Cn1cnc2c(N)ncnc21)ON=C1CCCCC1 (stereo partly drawn) [Example 8, isopropyl (((((R)-1-(6-amino-9H-purin-9-yl)propan-2-yl)oxy)methyl)((cyclohexylideneamino)oxy)phosphoryl)-L-alaninate]	–	7.17	7.04	–
CC(C)OC(=O)[C@H](C)NP(=O)(CO[C@H](C)Cn1cnc2c(N)ncnc21)ON=C1CCOCC1 (stereo partly drawn) [Example 9, isopropyl (((((R)-1-(6-amino-9H-purin-9-yl)propan-2-yl)oxy)methyl)(((tetrahydro-4H-pyran-4-ylidene)amino)oxy)phosphoryl)-L-alaninate]	–	6.78	6.44	–
CC(C)OC(=O)[C@H](C)NP(=O)(CO[C@H](C)Cn1cnc2c(N)ncnc21)ON=C1CCN(Cc2ccccc2)CC1 (stereo partly drawn) [Example 11, isopropyl (((((R)-1-(6-amino-9H-purin-9-yl)propan-2-yl)oxy)methyl)(((1-benzylpiperidin-4-ylidene)amino)oxy)phosphoryl)-L-alaninate]	–	7.83	7.29	–
CC(C)CC(CC(C)C)=NOP(=O)(CO[C@H](C)Cn1cnc2c(N)ncnc21)N[C@@H](C)C(=O)OC(C)C (stereo partly drawn) [Example 12, isopropyl (((R)-(((R)-1-(6-amino-9H-purin-9-yl)propan-2-yl)oxy)methyl)(((2,6-dimethylheptan-4-ylidene)amino)oxy)phosphoryl)-L-alaninate; and isopropyl (((S)-(((R)-1-(6-amino-9H-purin-9-yl)propan-2-yl)oxy)methyl)(((2,6-dimethylheptan-4-ylidene)amino)oxy)phosphoryl)-L-alaninate]	17.6	–	–	–
CC(C)OC(=O)[C@H](C)NP(=O)(CO[C@H](C)Cn1cnc2c(N)ncnc21)ON=C1CCCC1 (stereo partly drawn) [Example 13, isopropyl (((R)-(((R)-1-(6-amino-9H-purin-9-yl)propan-2-yl)oxy)methyl)((cyclopentylidene-amino)oxy)phosphoryl)-L-alaninate; and isopropyl (((S)-(((R)-1-(6-amino-9H-purin-9-yl)propan-2-yl)oxy)methyl)((cyclopentylidene-amino)oxy)phosphoryl)-L-alaninate]	95.7	–	–	–
CC(C)OC(=O)[C@H](C)NP(=O)(CO[C@H](C)Cn1cnc2c(N)ncnc21)ON=C(c1ccccc1)c1ccccc1 (stereo partly drawn) [Example 14, isopropyl (((((R)-1-(6-amino-9H-purin-9-yl)propan-2-yl)oxy)methyl)(((diphenylmethylene)amino)oxy)phosphoryl)-L-alaninate]	–	7.73	6.77	–
C/C(=N\OP(=O)(CO[C@H](C)Cn1cnc2c(N)ncnc21)N[C@@H](C)C(=O)OC(C)C)C1CCCCC1 (stereo partly drawn) [Example 15, isopropyl (((R)-(((R)-1-(6-amino-9H-purin-9-yl)propan-2-yl)oxy)methyl)((((E)-1-cyclohexylethylidene)amino)oxy)phosphoryl)-L-alaninate; and isopropyl (((S)-(((R)-1-(6-amino-9H-purin-9-yl)propan-2-yl)oxy)methyl)((((E)-1-cyclohexylethylidene)amino)oxy)phosphoryl)-L-alaninate]	33.4	–	–	–
C/C(=N\OP(=O)(CO[C@H](C)Cn1cnc2c(N)ncnc21)N[C@@H](C)C(=O)OC(C)C)c1ccncc1 (stereo partly drawn) [Example 16, isopropyl (((R)-(((R)-1-(6-amino-9H-purin-9-yl)propan-2-yl)oxy)methyl)((((E)-1-(pyridin-4-yl)ethylidene)amino)oxy)phosphoryl)-L-alaninate and isopropyl; and (((S)-(((R)-1-(6-amino-9H-purin-9-yl)propan-2-yl)oxy)methyl)((((E)-1-(pyridin-4-yl)ethylidene)amino)oxy)phosphoryl)-L-alaninate]	–	6.11	5.94	–
C/C(=N\OP(=O)(CO[C@H](C)Cn1cnc2c(N)ncnc21)N[C@@H](C)C(=O)OC(C)C)C1CCCC1 (stereo partly drawn) [Example 21, isopropyl (((R)-(((R)-1-(6-amino-9H-purin-9-yl)propan-2-yl)oxy)methyl)((((E)-1-cyclopentylethylidene)amino)oxy)phosphoryl)-L-alaninate; and isopropyl (((S)-(((R)-1-(6-amino-9H-purin-9-yl)propan-2-yl)oxy)methyl)((((E)-1-cyclopentylethylidene)amino)oxy)phosphonyl)-L-alaninate]	79.5	–	–	–
